According to patent publication US11202792B2, “CD99 inhibitors and their uses” (GEORGETOWN UNIVERSITY, priority 2016, dated 2021):

How the values were obtained:
[1] = tested on: ROCK2 expression in RDES, 6647, IOR/CAR and TC-71 ES cells; assay: ROCK2 expression by immunoblot in ES cells; format: cell-based, human; details: 24 h, vs DMSO-treated control cells
Protocol: Immunoblot analysis was performed on total cell lysates for ROCK2 and GAPDH expression. In FIG. 8B, TC-71 control and TC-CD99-shRNA #2 cells were treated with either drug at indicated concentrations for 1, 3 and 6 h. Immunoblot analysis was performed on total cell lysates for ROCK2 and GAPDH expression. In FIG. 8C, cell migration experiments were performed using Boyden chamber transwell migration assay with 10% serum serving as the chemoattractant in the lower chamber. […] The number of migrated cells was then quantified by counting the cells in the bottom chamber under the microscope. Asterisks indicate statistically significant differences between treatments (*p<0.05; vs. control using a Student's unpaired t test). […]

[2] = tested on: RH1 rhabdomyosarcoma cells; assay: Cell viability IC50, RH1; format: cell-based; details: Homo sapiens, RH1 (RM)
Protocol: (§1) The plate was installed into the RTCA system, and the electrical impedance (represented as cell index) was measured every 10 min.
(§2) To investigate the relationship between the level of CD99 expression and drug sensitivity, the endogenous expression of CD99 was determined in a panel of 9 ES and 13 non-ES cell lines. The recombinant purified CD99-ECD protein was used to generate standard curves for immunoquantification of CD99 expression by immunoblotting (FIGS. 6B and 6C).

ES cell lines = assay: Cell viability IC50 panel (WST-1 or MTT), ES cell lines; format: cell-based, human; details: for IC50: Homo sapiens, 48 h, read-out: average IC50 concentration for ES cell lines; for IC50 concentrations, ES cell lines: all ES cell lines except A673; for increased sensitivity of ES compared to non-ES cell lines: ratio of average IC50 non-ES vs ES
[3] = tested on: RD18 rhabdomyosarcoma cells; assay: Cell viability IC50, RD18; format: cell-based; details: Homo sapiens, RD18 (RM)
Protocol: as §1, §2

[4] = target: T1, interaction of CD99 with cyclophilin A and PKA-RIIα (Homo sapiens, UniProt P14209); assay: Co-immunoprecipitation of CD99 with cyclophilin A and PKA-RIIα; format: cell-based; details: 3 μmol/L, 6 h; RDES or STA-ET-7.2 cells
T1 construct: Endogenous CD99 was immunoprecipitated from RDES or STA-ET-7.2 ES cells; endogenous in cells; host or cells: RDES or STA-ET-7.2
T1 sequence (P14209 23-185): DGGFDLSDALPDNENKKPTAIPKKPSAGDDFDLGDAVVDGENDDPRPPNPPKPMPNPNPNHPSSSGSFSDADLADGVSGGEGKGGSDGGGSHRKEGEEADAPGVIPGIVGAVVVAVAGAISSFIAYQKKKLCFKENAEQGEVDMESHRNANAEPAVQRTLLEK
Protocol: In FIG. 7A, STA-ET-7.2 ES cells were incubated with either drug at 5 μmol/L concentration or DMSO for 1 h. The cells were treated with cross-linking agent BS^3 as described in the Examples. The lysates were resolved in 12% SDS-PAGE followed by immunoblotting with anti-actin and anti-CD99 clone 013 antibodies. M and D represent monomeric and dimeric forms of CD99, respectively. Values given below the lanes on the immunoblot represent the relative density of the bands, and were determined using ImageJ 1.48v software. In FIG. 7B, RDES or STA-ET-7.2 ES cells were treated with 3 μmol/L of either drug for 6 h. Endogenous CD99 was immunoprecipitated from total cell lysates using either anti-CD99 clone 12E7 antibody or anti-CD99 clone 013 antibody. Immunoblot (IB) analysis was performed for cyclophilin A, CD99 and PKA-RIIα using both cell lysates (TCL) and immunoprecipitated (IP) samples. Values given below the lanes on each immunoblot represent the relative density of the bands, and were determined using ImageJ 1.48v software. In FIG. 7C, SAOS-2 and U-2 OS cells were transiently transfected with an empty mammalian expression vector (EV) or an expression construct containing a cDNA encoding full length human CD99. The growth rate of cells was monitored by electrical impedance in real time. […]

A673 ES cells = assay: Cell viability IC50, A673; format: cell-based; details: Homo sapiens
Protocol: as §1, §2

Row | Structure (SMILES) | ROCK2 expression [1] | IC50 [2] [µM] | IC50 (ES cell lines) [µM] | IC50 concentrations, ES cell lines (ES cell lines) | increased sensitivity of ES compared to non-ES cell lines (ES cell lines) [fold] | IC50 [3] [µM] | amount of coprecipitated cyclophilin A and PKA-RIIα [4] | IC50 (A673 ES cells) [µM]
1 | Nc1nc(Cl)nc2c1ncn2[C@H]1C[C@H](O)[C@@H](CO)O1 [cladribine] | notable decrease | 0.9 | 1.09 ± 1.85 | submicromolar | 18 | 3.67 | decreased significantly | 7.42
2 | Nc1nc(Cl)nc2c1ncn2[C@@H]1O[C@H](CO)[C@@H](O)[C@@H]1F [clofarabine] | notable decrease | 0.2 | 0.44 ± 0.44 | submicromolar | 31 | 0.97 | decreased significantly | 1.9
